Results reported in patent US20240368163A1, “COMPOUNDS AND METHODS FOR MODULATING SPLICING” (REMIX THERAPEUTICS INC., priority 2021, published 2024).
Where two headings read alike, the source gives them in different places.

Columns and labels:
Format in all cases: cell-based, human
[1] = test system: Target C; assay: Splicing RT-qPCR panel, Target C canonical junction (CJ) mRNA; conditions: read-out: Target C IC50 (decrease in CJ mRNA levels)
How it was run: (§1)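 A673 or K562 cells treated 24 h at 37 °C with 11-point 3-fold dilutions, top 10 uM, DMSO ≤0.25%. Lysates read by RT-qPCR for CJ and AJ isoforms, normalized to GAPDH, GUSB or PPIA; ΔΔCt vs DMSO converted to RQ, then percent response.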

[2] = test system: HTT; assay: Splicing RT-qPCR assay, HTT mRNA canonical junction (CJ) and alternative junction (AJ); conditions: for AC50: increase in AJ mRNA
How it was run: as §1

[3] = test system: SMN2; assay: Splicing RT-qPCR panel, SMN2 canonical junction (CJ) mRNA; conditions: read-out: SMN2 IC50 (decrease in CJ mRNA levels)
How it was run: as §1

[4] = test system: MYB; assay: HiBiT protein abundance assay, MYB; conditions: modified K562 cells
How it was run: (§2)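 Luminescent readout from lytic HiBiT/LgBiT complementation reports endogenous tagged protein level in engineered K562 cells. Compounds dosed 24 h, top 10 μM final, 3-fold steps, 10 points. IC50 is the concentration giving 50% of untreated-control abundance, from 4-parameter logistic fit.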

[5] = test system: HTT; assay: HiBiT protein abundance assay, HTT; conditions: modified K562 cells
How it was run: as §2

[6] = Homo sapiens, RT-qPCR panel, canonical junction mRNA, compound concentration having 50% response in CJ decrease
[7] = Homo sapiens, 24 h, decrease in CJ mRNA, A673 or K562 cells, 24 hours treatment, RT-qPCR, read-out: HTT CJ IC50
[8] = Homo sapiens, 24 h, A673 or K562 cells, 24 hours treatment, RT-qPCR
[9] = Homo sapiens, RT-qPCR panel, canonical junction mRNA, compound concentration having 50% response in CJ decrease, read-out: HTT IC50 (decrease in CJ mRNA levels)
[10] = Homo sapiens, K562, 24 h, Table 13A
[11] = RT-qPCR panel, canonical junction mRNA, compound concentration having 50% response in CJ decrease
[12] = RT-qPCR panel, canonical junction mRNA, compound concentration having 50% response in CJ decrease, read-out: HTT IC50 (decrease in CJ mRNA levels)
[13] = Homo sapiens, gene panel, CJ qPCR, protocol of Example 142
[14] = Homo sapiens, gene panel, CJ qPCR, protocol of Example 142, read-out: HTT IC50 (decrease in CJ mRNA levels)
[15] = Homo sapiens, K562, 24 h, Table 13B

| Structure (SMILES) | IC50 [1, 6] [µM] | AC50 [2, 8] [µM] | IC50 [2, 9] [µM] | IC50 [3, 6] [µM] | IC50 [4, 10] [µM] | IC50 [5, 10] [µM] | also measured |
| --- | --- | --- | --- | --- | --- | --- | --- |
| CC1(C)CC(Oc2ccc(-c3cc(F)c(-c4cn[nH]c4)c4cn[nH]c34)nn2)CC(C)(C)N1 [Compound 307] | 0.1 to 1 | 0.1 to 1 | 0.1 to 1 | < 0.1 | 0.1 to 1 | < 0.1 | IC50 [2, 7]: 0.1 to 1 µM |
| c1nc2c(-c3cn[nH]c3)ccc(-c3ccc(N(C4CC4)C4C[C@H]5CCC[C@@H](C4)N5)nn3)c2s1 (stereo partly shown) [Compound 311] | 0.1 to 1 | < 0.1 | < 0.1 | < 0.1 | 0.1 to 1 | 0.1 to 1 |  |
| Fc1cc(-c2ccc(OC3CC4CC(F)(F)C(C3)N4)nn2)c2[nH]ncc2c1-c1cn[nH]c1 (stereo not shown) [Compound 313, 7-[6-({6,6-difluoro-8-azabicyclo[3.2.1]octan-3-yl}oxy)pyridazin-3-yl]-5-fluoro-4-(1H-pyrazol-4-yl)-1H-indazole] | 0.1 to 1 | 0.1 to 1 | < 0.1 | < 0.1 | 0.1 to 1 | 0.1 to 1 |  |
| Fc1cc(-c2ccc(O[C@@H]3C[C@H]4CC[C@@H](C3)N4)nn2)c2sncc2c1-c1cn[nH]c1 [Compound 327] | < 0.1 | < 0.1 | < 0.1 | < 0.1 | < 0.1 | < 0.1 |  |
| COc1cc(-c2ccc(-c3ccc(N(C)C4CC(C)(C)NC(C)(C)C4)nn3)c3scnc23)cnn1 [Compound 330] | < 0.1 | < 0.1 | < 0.1 | < 0.1 | 0.1 to 1 | < 0.1 |  |
| CC(C)(C)NC1CCN(c2ccc(-c3ccc(-c4cn[nH]c4)c4ncsc34)nn2)C1 (stereo not shown) [Compound 336] |  |  |  | < 0.1 |  | < 0.1 | IC50 [1, 11]: > 10 µM; IC50 [2, 12]: 0.1 to 1 µM; IC50 ([2]; decrease in CJ mRNA, A673 or K562 cells, 24 hours treatment, RT-qPCR, read-out: HTT CJ IC50): 0.1 to 1 µM; IC50 ([4]; Table 13A, 24 hours): 0.1 to 1 µM |
| c1nc2c(-c3cn[nH]c3)ccc(-c3ccc(N4CCC(NC5CC5)C4)nn3)c2s1 (stereo not shown) [Compound 337] | > 10 | 1 to 10 | > 10 | 0.1 to 1 | 0.1 to 1 | 1 to 10 | IC50 [2, 7]: > 10 µM |
| Fc1cc(-c2ccc(N[C@@H]3C[C@H]4CC[C@@H](C3)N4)nn2)c2scnc2c1-c1cn[nH]c1 [Compound 339] | < 0.1 | < 0.1 | < 0.1 | < 0.1 | < 0.1 | < 0.1 |  |
| Cc1ncc(-c2ccc(-c3ccc(O[C@@H]4C[C@H]5CC[C@@H](C4)N5)nn3)c3scnc23)s1 [Compound 348, 7-{6-[(exo)-8-azabicyclo[3.2.1]octan-3-yloxy]pyridazin-3-yl}-4-(2-methyl-1,3-thiazol-5-yl)-1,3-benzothiazole] | 0.1 to 1 | 0.1 to 1 | < 0.1 | < 0.1 | < 0.1 | < 0.1 |  |
| CN(c1ccc(-c2ccc(-c3cn[nH]c3)c3ncsc23)nn1)[C@H]1C[C@H]2COC[C@@H](C1)N2 [Compound 356, (endo)-N-methyl-N-{6-[4-(1H-pyrazol-4-yl)-1,3-benzothiazol-7-yl]pyridazin-3-yl}-3-oxa-9-azabicyclo[3.3.1]nonan-7-amine] |  |  |  |  |  |  | IC50 [1, 11]: < 0.1 µM; IC50 [2, 12]: < 0.1 µM; IC50 [3, 11]: < 0.1 µM; IC50 ([4]; Table 13A, 24 hours): < 0.1 µM; IC50 ([5]; Table 13A, 24 hours): < 0.1 µM |
| COc1cc(-c2ccc(-c3ccc(O[C@@H]4C[C@H]5CC[C@@H](C4)N5)nn3)c3scnc23)cnn1 [Compound 362] | 0.1 to 1 | < 0.1 | < 0.1 | < 0.1 | < 0.1 | < 0.1 |  |
| Fc1ccn(-c2ccc(-c3ccc(O[C@@H]4C[C@H]5CC[C@@H](C4)N5)nn3)c3scnc23)n1 [Compound 363] | 0.1 to 1 | 0.1 to 1 | < 0.1 | < 0.1 | 0.1 to 1 | < 0.1 |  |
| CN(c1ncc(-c2ccc(-n3cccn3)c3[nH]ncc23)nn1)[C@@H]1C[C@H]2CCC[C@@H](C1)N2 [Compound 551] | < 0.1 |  | < 0.1 | < 0.1 | < 0.1 | < 0.1 |  |
| c1cnn(-c2ccc(-c3cnc(N[C@@H]4C[C@H]5CC[C@@H](C4)N5)nn3)c3cn[nH]c23)c1 [Compound 556] | 0.1 to 1 |  | < 0.1 | 0.1 to 1 | 0.1 to 1 | < 0.1 |  |
| c1cnn(-c2ccc(-c3cnc(N[C@@H]4C[C@H]5CCC[C@@H](C4)N5)nn3)c3cn[nH]c23)c1 [Compound 561] | 0.1 to 1 |  | < 0.1 | 0.1 to 1 | 0.1 to 1 | < 0.1 |  |
| CC(C)(C)C1CN(c2ncc(-c3ccc(-n4cccn4)c4[nH]ncc34)nn2)CCN1 (stereo not shown) [Compound 572] | 0.1 to 1 |  | < 0.1 | 0.1 to 1 | 0.1 to 1 | < 0.1 |  |
| CN(c1ncc(-c2ccc(-n3cncn3)c3[nH]ncc23)nn1)[C@@H]1C[C@H]2CCC[C@@H](C1)N2 [Compound 574] | < 0.1 |  | < 0.1 | < 0.1 | 0.1 to 1 | < 0.1 |  |
| CN(c1ncc(-c2ccc(-n3ccnn3)c3[nH]ncc23)nn1)[C@@H]1C[C@H]2CCC[C@@H](C1)N2 [Compound 576] | 0.1 to 1 |  | < 0.1 | 0.1 to 1 | 0.1 to 1 | < 0.1 |  |
| Cc1ncc(-c2ccc(-c3cnc(N(C)[C@@H]4C[C@H]5CCC[C@@H](C4)N5)nn3)c3scnc23)s1 [Compound 578] | 0.1 to 1 |  | < 0.1 | < 0.1 | 0.1 to 1 | < 0.1 |  |
| Cc1nc(-c2ccc(-c3cnc(N(C)[C@@H]4C[C@H]5CCC[C@@H](C4)N5)nn3)c3scnc23)cs1 [Compound 579] | 0.1 to 1 |  | 0.1 to 1 | 0.1 to 1 | 1 to 10 | 0.1 to 1 |  |
| Cc1cc(-c2ccc(-c3cnc(N(C)[C@@H]4C[C@H]5CCC[C@@H](C4)N5)nn3)c3scnc23)sn1 [Compound 580] | < 0.1 |  | < 0.1 | < 0.1 | 0.1 to 1 | < 0.1 |  |
| CC(C)(C)[C@H]1CN(c2ncc(-c3ccc(-n4cccn4)c4[nH]ncc34)nn2)CCN1 [Compound 581] | 0.1 to 1 |  | < 0.1 | 0.1 to 1 | 0.1 to 1 | < 0.1 |  |
| COc1nc(-c2ccc(N(C)[C@@H]3C[C@H]4CC[C@@H](C3)N4)nn2)ccc1-c1cn[nH]c1 [Compound 906] |  |  |  |  |  |  | IC50 [1, 13]: < 0.1 µM; IC50 [2, 14]: < 0.1 µM; IC50 [3, 13]: < 0.1 µM; IC50 [4, 15]: < 0.1 µM; IC50 [5, 15]: < 0.1 µM |
| CN(c1ccc(-c2ccc(-c3cn[nH]c3)cn2)nn1)[C@@H]1C[C@H]2CC[C@@H](C1)N2 [Compound 915] |  |  |  |  |  |  | IC50 [1, 13]: 1 to 10 µM; IC50 [2, 14]: 0.1 to 1 µM; IC50 [3, 13]: > 10 µM; IC50 [4, 15]: 1 to 10 µM; IC50 [5, 15]: 0.1 to 1 µM |
| COc1nc(-c2ccc(OC3CC(C)(C)NC(C)(C)C3)nn2)ccc1-c1cn[nH]c1 [Compound 917] |  |  |  |  |  |  | IC50 [1, 13]: 0.1 to 1 µM; IC50 [2, 14]: 0.1 to 1 µM; IC50 [3, 13]: < 0.1 µM; IC50 [4, 15]: 0.1 to 1 µM; IC50 [5, 15]: < 0.1 µM |
| COc1nc(-c2ccc(OC3CC(C)(C)NC(C)(C)C3)nn2)ccc1-c1cnn(C)c1 [Compound 918] |  |  |  |  |  |  | IC50 [1, 13]: 0.1 to 1 µM; IC50 [2, 14]: 0.1 to 1 µM; IC50 [3, 13]: < 0.1 µM; IC50 [4, 15]: 0.1 to 1 µM; IC50 [5, 15]: < 0.1 µM |
| COc1nc(-c2ccc(N(C)C3CC(C)(C)NC(C)(C)C3)nn2)ccc1-c1cn[nH]c1 [Compound 919] |  |  |  |  |  |  | IC50 [1, 13]: 0.1 to 1 µM; IC50 [2, 14]: < 0.1 µM; IC50 [3, 13]: < 0.1 µM; IC50 [4, 15]: 0.1 to 1 µM; IC50 [5, 15]: < 0.1 µM |
| COc1nc(-c2ccc(N(C)C3CC(C)(C)NC(C)(C)C3)nn2)ccc1-c1cnn(C)c1 [Compound 920] |  |  |  |  |  |  | IC50 [1, 13]: 0.1 to 1 µM; IC50 [2, 14]: 0.1 to 1 µM; IC50 [3, 13]: < 0.1 µM; IC50 [4, 15]: 0.1 to 1 µM; IC50 [5, 15]: < 0.1 µM |
| CN(c1ccc(-c2ccc(-c3cn[nH]c3)c(F)n2)nn1)[C@@H]1C[C@H]2CC[C@@H](C1)N2 [Compound 922] |  |  |  |  |  |  | IC50 [1, 13]: 0.1 to 1 µM; IC50 [2, 14]: < 0.1 µM; IC50 [3, 13]: < 0.1 µM; IC50 [4, 15]: < 0.1 µM; IC50 [5, 15]: < 0.1 µM |
| CN(c1ccc(-c2ccc(-c3cn[nH]c3)c(C#N)n2)nn1)[C@@H]1C[C@H]2CC[C@@H](C1)N2 [Compound 930] |  |  |  |  |  |  | IC50 [1, 13]: 0.1 to 1 µM; IC50 [2, 14]: < 0.1 µM; IC50 [3, 13]: < 0.1 µM; IC50 [4, 15]: < 0.1 µM; IC50 [5, 15]: < 0.1 µM |
